This is an account of results in patent publication US20050233304A1, “Method of screening remedy for renal failure” (YAMANOUCHI PHARMACEUTICAL CO., LTD., priority 2002, published 2005).

What all share (type): cell-based
The target of one experiment is T1, human FGK (Homo sapiens, UniProt Q9BXA5, A284G/P282A).
T1 construct: A complete cDNA coding for the FGK of the present invention was obtained by PCR using a human kidney cDNA; expressed in transfected cells; host or cells: HEK293 cells (ATCC), transient transfection with FuGENE6
T1 sequence (Q9BXA5 5-334 P282A/A284G): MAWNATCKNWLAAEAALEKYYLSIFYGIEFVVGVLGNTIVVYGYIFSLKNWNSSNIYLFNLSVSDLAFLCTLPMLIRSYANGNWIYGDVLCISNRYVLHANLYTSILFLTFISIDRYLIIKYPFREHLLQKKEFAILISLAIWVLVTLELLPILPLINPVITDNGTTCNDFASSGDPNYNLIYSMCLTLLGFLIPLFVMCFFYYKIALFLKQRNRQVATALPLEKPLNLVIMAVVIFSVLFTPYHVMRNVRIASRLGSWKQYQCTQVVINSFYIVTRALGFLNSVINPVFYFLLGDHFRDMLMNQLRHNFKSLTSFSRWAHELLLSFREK
Put plainly: Screening of substances inhibiting FGK activity: pEF-BOS-Gqi + pSRE-luc luciferase reporter in HEK293 cells transfected with human FGK. The conditions noted are these: pEF-BOS-Gqi and human FGK plasmid, 24 hours with compound, DMSO control = 100%, read-out: Example 5 Inhibition of pGqi + pSRE-luc reporter activity IC50. The protocol:
An expression plasmid used in the Example for expressing a chimeric protein of Gq and Gi was prepared by cloning, a gene (hereinafter, to be referred to as Gqi gene) constructed by replacing 5 amino acids in the Gq C-terminal side (Glu-Tyr-Asn-Leu-Val; the amino acid sequence represented by SEQ ID NO:15) with 5 amino acids in the Gi C-terminal side (Asp-Cys-Gly-Leu-Phe; the amino acid sequence represented by SEQ ID NO:16) in accordance with the method of Conklin, B. R. et al. (Nature, 363, 274-276, 1993) into the plasmid pEF-BOS-dhfr. The constructed plasmid was named pEF-BOS-Gqi.
As the illustrative method, firstly, using Dulbecco's modified Eagle's medium (DMEM) containing 10% fetal bovine serum, HEK293 cells (obtained from ATCC) were dispensed in 1×10^5 cells per well portions into a 24-well plate (Asahi Technbglass) and cultured for 24 hours. Then transfection of 0.05 μg of a reporter plasmid pSRE-luc in which a serum response sequence was inserted into upstream of a luciferase gene (PathDetect™ SRE cis-Reporting System; Stratagene), 0.05 μg of pEF-BOS-Gqi and 0.5 μg at the maximum of a human FGK expression plasmid which is 0.6 μg in total per well was carried out using a transfection reagent (FuGENE6; Boehringer-Roche). Cells transfected with the pcDNA3.1 vector alone without containing FGK, together with the reporter plasmid and pEF-BOS-Gqi, was used as the control. Other conditions and measurement of the reporter activity were as described in Example 3. Increase in the reporter activity by the expression of FGK was observed. Additionally, dose-dependent activation by FGK was also observed.
Screening of a test substance was carried out using the screening system which uses changes in FGK activity as the index, constructed in Example 4.
Using 10% fetal bovine serum-containing Dulbecco's modified Eag;e's medium(DMEM),HEK293 cells(obtained from ATCC) were inoculated in 1×10^4 cells per well portions into a 96-well plate (Asahi Technoglass) and cultured at 37° C. for 24 hours. Transfection of 0.01 μg of the reporter plasmid pSRE-luc (Example 4), 0.03 μg of pEF-BOS-Gqi and 0.02 μg of a human FGK expression plasmid which is 0.06 μg in total per well was carried out using a transfection reagent (FuGENE6; Boehringer-Roche). After 6 hours of incubation at 37° C., a dimethyl sulfoxide solution of each test compound was added to become a final concentration of 30 μM, 10 μM, 3 μM, […], 0.3 μM or 0.1 μM, and then incubated at 37° C. for additional 24 hours. Thereafter, the reporter activity was measured to determine 50% activity inhibition concentration (IC50) of each test compound. As a control of the compound treatment, reporter activity when the same volume of dimethyl sulfoxide alone was added was regarded as 100%. Other conditions and measurement of reporter activity were as described in Example 4.

Experiment [1] relates to CTGF promoter activation by FGK. The experiment in a line: Inhibition of CTGF promoter activation by FGK: pCTGF-luc reporter in HEK293 cells transfected with human FGK. To be noted: HEK293 cells transfected with pCTGF-luc and human FGK plasmid; 24 hours with compound; DMSO control = 100%; read-out: Example 7 Inhibition of pCTGF-luc activity IC50. The procedure:
Using Dulbecco's modified Eagle's medium (DMEM) containing 10% fetal bovine serum, HEK293 cells (obtained from ATCC) were dispensed in 1×10^5 cells per well portions into a 24-well plate (Asahi Technoglass) and cultured at 37° C. for 24 hours. Transfection of 0.1 μg of a reporter plasmid and 0.5 μg at the maximum of a human FGK expression plasmid which is 0.6 μg in total per well was carried out using a transfection reagent (FuGENE6; Boehringer-Roche) in accordance with the instructions attached thereto. In this case, the amount of the transfected genes in each of the all wells was adjusted to 0.6 μg in total per well by adding a plasmid vector (pcDNA3.1; Invitrogen). Cells transfected with the pcDNA3.1 vector alone without containing FGK, together with the reporter plasmid, was used as the control. The medium was discarded 24 hours after transfection, and the residue was lysed by adding 100 μl per well of a cell lysis buffer. A […] portion of the lysate was mixed with 100 μl of a luciferin substrate solution and allowed to undergo the reaction to be measured using a luminometer (ML3000; Dynatech Laboratories). Activation of the CTGF promoter and COLIA2 promoter by the expression of FGK was observed. Additionslly, dose-dependent activation by FGK was also observed.
Screening of a test compound constructed in Example 3 was carried out using the CTGF promoter activation system by FGK.
HEK293 cells (obtained from ATCC) were plated at 1×10^4 cells per well into 96-well plates (Asahi Technoglass) in Dulbecco's modified Eagle's medium containing 10% fetal bovine serum (DMEM). After incubation for 24 hours at 37° C., cells were transfected with 0.02 μg of pCTGF-luc (cf. Example 2) and 0.02 μg of a human FGK expression plasmid which is 0.04 μg in total per well was carried out using a transfection reagent (FuGENE6; Boehringer-Roche). After incubation for 6 hours at 37° C., a dimethyl sulfoxide solution of each test compound was added thereto to become a final concentration of 30 µM, 10 μM, 3 μM, […], 0.3 μM or […], and then incubated at 37° C. for additional 24 hours. Thereafter, the reporter activity was measured to determine 50% activity inhibition concentration (IC50) of each test compound. As a control of the compound treatment, reporter activity when the same volume of dimethyl sulfoxide alone was added was regarded as 100%. Other conditions and measurement of reporter activity were as described in Example 3. Substances which inhibit CTGF promoter activation by FGK were selected, and the substances having an IC50 value of 10 μM or less were shown in Table 1. It was confirmed that a substance which inhibits CTGF expression by the assay system, namely a substance useful as a renal failure treating agent can be certainly be screened.

For the next experiment, the system named is CTGF mRNA expression. Put plainly: Inhibition of intrinsic CTGF mRNA expression in primary human proximal renal tubule epithelium cells (RPTEC), real time PCR. The conditions noted are these: 10 μM compound, 24 hours, CTGF/G3PDH, DMSO control = 100%. The procedure:
Primary culture cells of human proximal renal tubule epithelium (RPTEC; Asahi Technoglass) were plated at 2×10^5 cells per well into 12-well plates (Asahi Technoglass) using a proliferation medium for kidney epithelial cell use (Burette Kit REGM; Asahi Technoglass). After incubation for 24 hours at 37° C., each of the test compounds obtained in Example 5 (substances which inhibit FGK activity, namely FGK inverse agonists) was added thereto to a final concentration of 10 μM, and then incubated for additional 24 hours at 37° C. Thereafter, the cells were collected and the total RNA was purified using a spin column (RNeasy Mini Kit; Qiagen). Reverse transcription reaction was carried out using 1.5 μg of the total RNA and a reverse transcriptase (PowerScript Transcriptase; BD Biosciences) to obtain cDNA samples. Using each of them as the template, expressed amounts of CTGF and a housekeeping gene of glyceraldehyde 3-phosphate dehydrogenase (to be referred to as G3PDH hereinafter) were measured by real time PCR using PRISM 7700 Sequence Detector (PERKIN ELMER). In the PCR, SYBR Green PCR Master Mix (Applied Biosystems) was used, and after heating at 50° C. (2 minutes) and 95° C. (10 minutes), a cycle of 95° C. (15 seconds)/60° C. (60 seconds) was repeated for 40 times. For the detection of CTGF, an oligonucleotide represented by SEQ ID NO:17 was used as the forward primer, and an oligonucleotide represented by SEQ ID NO:18 was used as the reverse primer. For the detection of G3PDH, an oligonucleotide represented by SEQ ID NO:19 was used as the forward primer and an oligonucleotide represented by SEQ ID NO:20 was used as the reverse primer. A value calculated by dividing the expressed amount of CTGF by the expressed amount of G3PDH, both obtained by the PCR, was defined as the CTGF expression quantity per unit RNA quantity. Also, as a control of the compound treatment, the CTGF expression quantity per unit RNA quantity when the same volume of dimethyl sulfoxide alone was added was regarded as 100%. The inhibitory activity of CTGF expression obtained by the assay (inhibitory activity at a compound concentration of 10 μM) is shown in Table 1.

On to `CCOc1ccc(Nc2nc(-c3sc(N)nc3C)cs2)cc1` [No 1, N^2-(4-ethoxyphenyl)-4′-methyl-4,5′-bi-1,3-thiazole-2,2′-diamine], for which the IC50 is 6.1 µM at human FGK and 14.1 µM in experiment [1]. Also, the “Example 6 Inhibition Intrinsic CTGF mRNA Expression at 10 μM” value in the experiment with CTGF mRNA expression is on record as 62%.
For `COc1ccc(Cl)cc1Nc1nc(-c2cccs2)cs1` [No 2, N-(5-chloro-2-methoxyphenyl)-4-(2-thienyl)-1,3-thiazole-2-amine], the IC50 at human FGK was 4.6 µM; in experiment [1], 16.1 µM. The “Example 6 Inhibition Intrinsic CTGF mRNA Expression at 10 μM” value in the experiment on CTGF mRNA expression came to 72%.
For `CC(=O)Nc1nc(C)c(-c2csc(Nc3cccc(C)c3)n2)s1` [No 3, N-[4′-methyl-2-[(3-methylphenyl)amino]-4,5′-bi-1,3-thiazol-2′-yl]acetamide hydrobromate] the same measures were 0.6 µM, 2.6 µM and 79%.
Consider `CC(=O)Nc1ccc(-c2csc(Nc3cccc(C(F)(F)F)c3)n2)cc1` [No 4, N-[4-(2-{[3-(trifluoromethyl)phenyl]amino}-1,3-thiazol-4-yl)phenyl]acetamide], for which the IC50 was 3.9 µM at human FGK and 3.6 µM in experiment [1]. For the same compound, the “Example 6 Inhibition Intrinsic CTGF mRNA Expression at 10 μM” value in the experiment on CTGF mRNA expression came out at 65%.
The like results for `CC(=O)Nc1nc(C)c(-c2csc(Nc3ccc(O)cc3)n2)s1` [No 5, N-{2-[(4-hydroxyphenyl)amino]-4′-methyl-4,5′-bi-1,3-thiazol-2′-yl}acetamide hydrobromate] were, in that order, 2.5 µM, 1.8 µM and 81%.
Consider `CCOC(=O)c1c(C)nn(-c2ccc(NC(=O)c3ccccc3C(=O)O)cc2)c1C` [No 6, 2-[({4-[4-(ethoxycarbonyl)-3,5-dimethyl-1H-pyrazol-1-yl]phenyl}amino)carbonyl]benzoic acid], for which the IC50 came out at 6.8 µM at human FGK and 3.8 µM in experiment [1]. The “Example 6 Inhibition Intrinsic CTGF mRNA Expression at 10 μM” value in the experiment on CTGF mRNA expression amounted to 35%.
For `Cc1cc(C(=O)C(F)(F)F)c(C)n1-c1ccc(NC(=O)c2ccccc2F)cc1` [No 7, N-{4-[2,5-dimethyl-3-(trifluoroacetyl)-1H-pyrrol-1-yl]phenyl}-2-fluorobenzamide] the same measures were 3.1 µM, 1.7 µM and 36%.
